From patent EP2116236A1, “Bisbenzamidine derivatives for use as antioxidant” (Université de Mons-Hainaut, priority 2008, dated 2009)

Legend:
[1] = superoxide dismutase activity: inhibition of pyrogallol auto-oxidation; format: biochemical; conditions: for Percent inhibition of the rate of pyrogallol auto-oxidation: compound 0.5 mM, pyrogallol 0.750 mM, TRIS saline buffer pH 7.4, first two minutes, average of three measures
Method: The pyrogallol auto-oxidation was measured at 420 nm according to the procedure Marklund & Marklund as reported in Vamecq et al. (2003). The incubation medium comprised TRIS saline buffer at pH 7.4 (5 mM TRIS, 50 mM NaCl) with either the vehicle (DMSO) or one of the compounds (final concentration 0.5 mM ) dissolved in DMSO. The reaction was triggered by the addition of pyrogallol (0.750 mM).
The results are given as percent inhibition of the rate of pyrogallol auto-oxidation measured during the first two minutes.

audiogenic seizure = audiogenic seizure test in magnesium deficient animals; format: in vivo
Method: (§1) The tests were performed in rodents as described in J. Vamecq et al. Eur. J. Neurosc. 2003, 18, 1110. The results are shown in Table 1, wherein ScPtz refers to subcutaneous pentylenetetrazol, MES refers to Maximal Electroshock Seizures, MCS refers to Maximal Clonic Seizures, and ND means "not determined". The results are given as ED50 in mg/kg.

[2] = glutathione peroxidase activity: stimulation of peroxide-induced oxidation of reduced glutathione; format: biochemical; conditions: for Effects of the compounds on the oxidation rate (%): average glutathione oxidation rate, vehicle control = 100 %, 2 mM reduced glutathione, 10 µl 50 mM compound in 1 mL, pH 7.4; for Glutathione peroxidase activity: 2 mM reduced Glutathione
Method: The activity of glutathione peroxidase compounds refers to the stimulation by the compounds of the peroxide-induced oxidation of reduced glutathione (H2O2, t-butyl-hydroperoxide or cumene hydroperoxide). […] The formation of oxidized glutathione results in the oxidation of NADPH in the presence of glutathione reductase. The NADPH oxidation is then measured and reflects the formation of oxidized glutathione. In view of the absorbance of the compounds, NADPH oxidation was measured by the fluorescent emission at 466 nm when excited at 366 nm, which a corrected quenching.
The glutathione oxidation was measured in the presence of NADPH and glutathione reductase in 1 ml cell by fluorimetry (λexcitation = 366 nm and λemission= 466 nm). The cell contained 1 mL of 10 mM phosphate buffer pH 7.4, 0.25 mM NADPH, 10 µl DMSO (or 10 µl 50 mM compound dissolved in DMSO), 2 mM reduced glutathione and two units of glutathione reductase (Saccharomyces cerevisiae). The reaction was triggered by the addition of peroxide (5 mM t-butyl-hydroperoxide). A stimulation of the rate of peroxide-induced oxidation of glutathione was considered as glutathione peroxidase activity.

[3] = test system: electrical seizure MCS (6 Hz); experiment: Maximal Clonic Seizures (MCS) 6 Hz electroshock test; format: in vivo
Method: as §1

chemical seizure (scPtz) = experiment: subcutaneous pentylenetetrazol (scPtz) induced chemical seizure test; format: in vivo; conditions: Mus musculus, ip
Method: as §1

[4] = test system: electrical seizure MES (50 Hz); experiment: Maximal Electroshock Seizures (MES) test; format: in vivo; conditions: Mus musculus, ip
Method: as §1

## N=C(N)c1ccc(N)cc1 [4-aminobenzaminidine, 4-aminobenzamidine, reference compound]
[1]
  Percent inhibition of the rate of pyrogallol auto-oxidation: < 5%
[1]; result in words
  scavenging activity toward the superoxide anion: does not have any scavenging activity

## N=C(N)c1ccc(NCCNc2ccc(C(=N)N)cc2)cc1 [Compound 2, 4,4'-(1,2-ethanediyldiimino)bisbenzenecarboximidamide]
Audiogenic seizure
  audiogenic seizure (mouse ip) ED50: active
Audiogenic seizure; mouse ip
  ED50: 6.9 mg/kg
[2]; 5 mM t-butyl-hydroperoxide
  Effects of the compounds on the oxidation rate (%): < 100%
[3]
  electrical seizure MCS (6 Hz) (mouse ip) ED50: ED50 = 48.95 mg/kg
[3]; Mus musculus, ip
  ED50: 60 to 100 mg/kg
[1]
  Percent inhibition of the rate of pyrogallol auto-oxidation: 36.3%
Chemical seizure (scPtz)
  ED50: > 300 mg/kg

## CN(CCN(C)c1ccc(C(=N)N)cc1)c1ccc(C(=N)N)cc1 [Compound 3, 4,4'-[1,2-ethanediyl (N,N'-dimethyl bisnitrilo)]bis(benzenecarboximidamide)]
Audiogenic seizure
  audiogenic seizure (mouse ip) ED50: little activity at non toxic doses
[2]; 2.5 mM cumene hydroperoxide
  Glutathione peroxidase activity: 128%
[2]; 2.5 mM hydrogen peroxide
  Glutathione peroxidase activity: 117%
[2]; 5 mM hydrogen peroxide
  Glutathione peroxidase activity: 108%
[2]; 5 mM t-butyl-hydroperoxide
  Glutathione peroxidase activity: 197%
  Effects of the compounds on the oxidation rate (%): 197%
[1]
  Percent inhibition of the rate of pyrogallol auto-oxidation: 51.0%
Chemical seizure (scPtz)
  ED50: > 300 mg/kg

## CN(CCNc1ccc(C(=N)N)cc1)c1ccc(C(=N)N)cc1 [Compound 4, 4,4'-(N-methyl 1,2-ethanediyldiimino)bis(benzenecarboximidamide)]
Audiogenic seizure
  audiogenic seizure (mouse ip) ED50: little activity at non toxic doses
[2]; 5 mM t-butyl-hydroperoxide
  Effects of the compounds on the oxidation rate (%): 107%
[1]
  Percent inhibition of the rate of pyrogallol auto-oxidation: 17.5%
[4]
  ED50: > 100 mg/kg
Chemical seizure (scPtz)
  ED50: > 100 mg/kg

## CCN(CCNc1ccc(C(=N)N)cc1)c1ccc(C(=N)N)cc1 [Compound 5, 4,4'-(N-ethyl-1,2-ethanediyldiimino)bis(benzenecarboximidamide)]
Audiogenic seizure
  audiogenic seizure (mouse ip) ED50: little activity at non toxic doses
[2]; 5 mM t-butyl-hydroperoxide
  Effects of the compounds on the oxidation rate (%): 105%
[1]
  Percent inhibition of the rate of pyrogallol auto-oxidation: 28.8%
Chemical seizure (scPtz)
  ED50: > 30 mg/kg
